Measurements as given in ChEMBL document CHEMBL5543127, “Design, Synthesis, and Biological Evaluation of 2-Phenoxyalkylhydrazide Benzoxazole Derivatives as Quorum Sensing Inhibitors with Strong Antibiofilm Effect” (J Med Chem, 2024).
≈ marks a conversion by molar mass, not a printed value. Calls of active or inactive are those of the source. The calls are words filed in the database; no cut-off is given here.

How the values were obtained:
Pseudomonas aeruginosa [1] = test: Anti-microbial activity against penicillin-susceptible Pseudomonas aeruginosa 27853 incubated for 20 hrs By CLSI based micro-dilution method; type: functional
Erythrocyte = test: Hemolytic activity in mouse RBC isolated from eye ball assessed as hemolysis at 256 microg/ml incubated for 1 hr; type: toxicity, cell-based; settings: dose 256 µg/ml
Staphylococcus aureus [2] = test: Anti-microbial activity against erythromycin-susceptible Staphylococcus aureus ATCC25923 incubated for 20 hrs By CLSI based micro-dilution method; type: functional
Pseudomonas aeruginosa [3] = test: Antibacterial activity against Pseudomonas aeruginosa PAO1 at logarithmic growth phase assessed as growth inhibition at 153.6 microg/ml measured upto 25 hrs by growth curve assay; type: functional, organism-based; settings: dose 153.6 µg/ml
Pseudomonas aeruginosa [4] = test: Antibacterial activity against Pseudomonas aeruginosa 27853 at logarithmic growth phase assessed as growth inhibition at 153.6 microg/ml measured upto 25 hrs by growth curve assay; type: functional, organism-based; settings: dose 153.6 µg/ml
Pseudomonas aeruginosa [5] = test: Induction of anti-bacterial effect in Pseudomonas aeruginosa PAO1 assessed as synergistic effect by measuring reduction in bacterial survival in presence of clarithromycin measured after 24 hrs incubation; type: functional, organism-based; settings: dose 8-128 µg/ml
Bacillus pumilus = test: Anti-microbial activity against Bacillus pumilus CMCC63202 incubated for 20 hrs By CLSI based micro-dilution method; type: functional
Staphylococcus aureus [6] = test: Anti-microbial activity against methicillin-resistant Staphylococcus aureus ATCC43300 incubated for 20 hrs By CLSI based micro-dilution method; type: functional
Pseudomonas aeruginosa [7] = test: Inhibition of protease in logarithmic growth phase Pseudomonas aeruginosa PAO1 assessed as inhibition rate at 102.4 microg/ml measured after 32 hrs; settings: dose 102.4 µg/ml
[8] = Inhibition of quorum sensing system in Pseudomonas aeruginosa PAO1 at logarithmic growth period assessed as inhibition of pyocyanin production at 102.4 microg/ml incubated for 18 hrs by pyocyanin inhibition assay; settings: dose 102.4 µg/ml
Bacillus subtilis = test: Anti-microbial activity against Bacillus subtilis ATCC9372 incubated for 20 hrs By CLSI based micro-dilution method; type: functional
Pseudomonas aeruginosa [9] = test: Antibiofilm activity against logarithmic growth phase Pseudomonas aeruginosa PAO1 assessed as inhibition of biofilm formation at 16 microg/ml incubated for 20 hrs by crystal violet staining based analysis; type: functional; settings: for inhibition: dose 16.0 µg/ml
Pseudomonas aeruginosa [10] = test: Induction of anti-bacterial effect in Pseudomonas aeruginosa PAO1 assessed as synergistic effect by measuring reduction in bacterial survival in presence of ciprofloxacin measured after 24 hrs incubation; type: functional, organism-based; settings: dose 8-128 µg/ml
Pseudomonas aeruginosa [11] = test: Antibiofilm activity against logarithmic growth phase Pseudomonas aeruginosa PAO1 assessed as inhibition of biofilm formation at 32 microg/ml incubated for 20 hrs by crystal violet staining based analysis; type: functional
Pseudomonas aeruginosa [12] = test: Anti-microbial activity against Pseudomonas aeruginosa PAO1 incubated for 20 hrs By CLSI based micro-dilution method; type: functional
Escherichia coli = test: Anti-microbial activity against penicillin-susceptible Escherichia coli ATCC25922 incubated for 20 hrs By CLSI based micro-dilution method; type: functional
Pseudomonas aeruginosa [13] = test: Anti-virulence activity against logarithmic growth phase Pseudomonas aeruginosa PAO1 assessed as inhibition of Rhamnolipid production at 102.4 microg/ml measured after 24 hrs; type: functional
Pseudomonas aeruginosa [14] = test: Induction of anti-bacterial effect in Pseudomonas aeruginosa PAO1 assessed as synergistic effect by measuring reduction in bacterial survival in presence of clarithromycin at 16 to 128 microg/ml measured after 24 hrs incubation; type: functional, organism-based; settings: dose 16-128 µg/ml
Pseudomonas aeruginosa [15] = test: Induction of anti-bacterial effect in Pseudomonas aeruginosa PAO1 assessed as synergistic effect by measuring reduction in bacterial survival in presence of ciprofloxacin at 16 to 128 microg/ml measured after 24 hrs incubation; type: functional, organism-based; settings: dose 16-128 µg/ml
Pseudomonas aeruginosa [16] = test: Induction of anti-bacterial effect in Pseudomonas aeruginosa PAO1 assessed as synergistic effect by measuring reduction in bacterial survival in presence of ciprofloxacin at 128 microg/ml measured after 24 hrs incubation relative to control; type: functional; settings: dose 128 µg/ml

Compound	MIC (Pseudomonas aeruginosa [1]) [µg/mL]	Activity (Erythrocyte)	MIC (Staphylococcus aureus [2]) [µg/mL]	Activity (Pseudomonas aeruginosa [3])	Activity (Pseudomonas aeruginosa [4])	Activity (Pseudomonas aeruginosa [5])	MIC (Bacillus pumilus) [µg/mL]	MIC (Staphylococcus aureus [6]) [µg/mL]	inhibition (Pseudomonas aeruginosa [7])	inhibition [8]	MIC (Bacillus subtilis) [µg/mL]	inhibition (Pseudomonas aeruginosa [9])	Activity (Pseudomonas aeruginosa [10])	inhibition at 32 µg/mL (Pseudomonas aeruginosa [11]) [%]	MIC (Pseudomonas aeruginosa [12]) [µg/mL]	MIC (Escherichia coli) [µg/mL]	inhibition at 102.4 µg/mL (Pseudomonas aeruginosa [13]) [%]	further results
Cc1ccc(C(=O)NNc2nc3ccccc3s2)cc1	512 (≈ 1810 µM)	Non-Toxic	512 (≈ 1810 µM)	inactive	inactive	Dose-Dependent Effect	256 (≈ 903 µM)	256 (≈ 903 µM)	> 20%	62.8%	512 (≈ 1810 µM)	Active	Dose-Dependent Effect	> 25.4	> 512	> 512		
COc1ccc(OCCCC(=O)NNc2nc3ccccc3o2)cc1	128 (≈ 375 µM)		64 (≈ 187 µM)				512 (≈ 1500 µM)	128 (≈ 375 µM)	30%	inactive	512 (≈ 1500 µM)	Active		> 25.4	> 512	> 512	> 40	
O=C(CCCCOc1ccc(F)cc1)NNc1nc2ccc(Cl)cc2o1	> 512		512 (≈ 1360 µM)				256 (≈ 678 µM)	256 (≈ 678 µM)	inactive	Active	512 (≈ 1360 µM)	Active		> 25.4	> 512	> 512	> 40	
O=C1C=C(Br)/C(=C\Br)O1	256 (≈ 1010 µM)		32 (≈ 126 µM)				256 (≈ 1010 µM)	128 (≈ 504 µM)			64 (≈ 252 µM)				128 (≈ 504 µM)	256 (≈ 1010 µM)	44.9	
O=C(CCCOc1ccc(C(F)(F)F)cc1)NNc1nc2ccccc2o1	256 (≈ 675 µM)	Non-Toxic	256 (≈ 675 µM)	inactive	inactive	Dose-Dependent Effect	> 512	256 (≈ 675 µM)	30%	inactive	512 (≈ 1350 µM)	Active	Dose-Dependent Effect	> 25.4	> 512	> 512	> 40	
O=C(CCCCOc1ccc(Cl)cc1)NNc1nc2ccccc2s1	> 512		256 (≈ 681 µM)	inactive	inactive		256 (≈ 681 µM)	512 (≈ 1360 µM)		Active	> 512	Active		> 25.4	> 512	> 512	> 40	
O=C(CCCCOc1ccc(Cl)cc1)NNc1nc2ccccc2o1	512 (≈ 1420 µM)	Non-Toxic	128 (≈ 356 µM)			Dose-Dependent Effect	> 512	512 (≈ 1420 µM)	inactive	Active	512 (≈ 1420 µM)	Active	Dose-Dependent Effect	> 25.4	> 512	> 512		Activity (Pseudomonas aeruginosa [14]): Active; Activity (Pseudomonas aeruginosa [15]): Active; Activity (Pseudomonas aeruginosa [16]): >90%
O=C(CCCOc1cccc(C(F)(F)F)c1)NNc1nc2ccccc2o1	256 (≈ 675 µM)		256 (≈ 675 µM)	inactive	inactive	Dose-Dependent Effect	> 512	512 (≈ 1350 µM)	30%	inactive	512 (≈ 1350 µM)	Active	Dose-Dependent Effect	> 25.4	> 512	> 512	> 40	
O=C(CCCCOc1ccc(Cl)cc1)NNc1nc2ccc(Cl)cc2o1	> 512		256 (≈ 649 µM)			Dose-Dependent Effect	256 (≈ 649 µM)	256 (≈ 649 µM)	inactive	Active	512 (≈ 1300 µM)	Active	Dose-Dependent Effect	> 25.4	> 512	> 512	> 40	
COc1ccc(OCCCCC(=O)NNc2nc3ccccc3o2)cc1	512 (≈ 1440 µM)	Non-Toxic	512 (≈ 1440 µM)			Dose-Dependent Effect	> 512	> 512	14.6%	Active	512 (≈ 1440 µM)	Active	Dose-Dependent Effect	> 25.4	> 512	> 512	52.1	
O=C(COc1ccc(Cl)cc1)NNc1nc2ccccc2o1	512 (≈ 1610 µM)		512 (≈ 1610 µM)	inactive	inactive	Dose-Dependent Effect	> 512	256 (≈ 806 µM)	10%	46.9%	512 (≈ 1610 µM)		Dose-Dependent Effect	> 25.4	> 512	> 512		inhibition at 16 µg/mL (Pseudomonas aeruginosa [9]): > 50%
O=C(NNc1nc2ccccc2s1)c1ccccc1F	512 (≈ 1780 µM)	Non-Toxic	> 512	inactive	inactive	Dose-Dependent Effect	512 (≈ 1780 µM)	> 512	> 20%	62.8%	512 (≈ 1780 µM)	Active	Dose-Dependent Effect	> 25.4	> 512	> 512		
